Key:
[1] = Phase 1 relative bioavailability study part 2: plasma pharmacokinetics of fedratinib (3-period crossover); assay type: in vivo, human; details: human, plasma, n = 30
Experimental: Study part 2 was a 3-period, 6-sequence, open-label, crossover design (Fig. 1B). Treatment 2A (reference) consisted of fedratinib 400 mg (4 × 100-mg capsules) administered orally alongside a nutritional supplement. Treatment 2B (test) consisted of fedratinib 400 mg dispersed in the nutritional supplement (180 mL, Ensure Plus), administered via nasogastric tube, and flushed with 60 mL of sterile water. Treatment 2C (test) consisted of fedratinib 400 mg as a divided dose (2 × 100-mg capsules BID) administered alongside the nutritional supplement. Participants were randomized to receive treatment in one of the following sequences: 2A–2B–2C, 2A–2C–2B, 2B–2A–2C, 2B–2C–2A, 2C–2A–2B, or 2C–2B–2A. […] In the case of an evening (second) dose in the divided dosing plan of treatment 2C, participants were directed to pre-fast at least 2 h before fedratinib dose, and 4 h after fedratinib dose, with water restricted from approximately 2 h before and 1 h after dosing, excluding water given with the treatment.
(§1) Approximately 1 h before each fedratinib administration, ondansetron oral tablet (film coated) 8 mg was given orally to reduce the potential for fedratinib-related nausea and vomiting. There was a washout period of at least 12 days between each dose of fedratinib. The duration from screening through the follow-up phone call was approximately 10 weeks. Participants resided at the clinical site from days -1 to 23 (study part 1), or days -1 to 35 (study part 2). If a participant discontinued from the study for any reason, an early termination visit was performed, with only the safety assessments scheduled for the day of discharge taking place. Additionally, each participant who discontinued also received a follow-up phone call 4 (± 2) days after completion of the early termination visit.
(§2) For study part 1, and part 2 treatments 2A and 2B, blood samples were collected pre-dose (0 h) and at 0.5, 1, 1.5, 2, 3, 4, 6, 8, 12, 24, 48, 72, 120, 168, 192, and 240 h post-dose. For treatment 2C, blood samples were collected pre-dose (0 h) and at 0.5, 1, 1.5, 2, 3, 4, 6, 8, 12, 12.5, 13, 13.5, 14, 15, 16, 18, 24, 48, 72, 120, 168, 192, and 240 h post-dose of the first dose. The plasma concentration of fedratinib was measured using a validated liquid chromatography-tandem mass spectrometry assay with a lower limit of quantification of 1.00 ng/mL [12, 20].
(§3) Plasma PK parameters were calculated using noncompartmental methods by a validated PK analysis program (Phoenix® WinNonlin®, v8.3.4 [Certara USA, Inc., Princeton, NJ, USA]) using actual times. The PK parameters determined for fedratinib Cmax, Tmax, AUC from time 0 to the time of the last quantifiable concentration (AUC0–t), AUC from time 0 to infinity (AUC0–∞), and t½. Additionally for treatment 2C, Cmax and Tmax were estimated after both the first dose (Cmax and Tmax) and the second dose (Cmax2 and Tmax2). AUC0–t and AUC0–∞ were estimated from time 0 (the first dose) through 240 h after the first dose. AUC parameters were calculated using the linear-log trapezoidal method.
(§4) The sample size for this study was based on consideration of the precision in the comparison of PK parameters, represented by the 90% confidence interval (CI) of the geometric mean ratios of Cmax and AUC of fedratinib. […] Only participants with valid PK data were included in the summary statistics and statistical analysis.
To compare the PK parameters and estimated relative bioavailability of fedratinib following different administration methods in each study part (treatment 1B to 1A, and treatment 2B and 2C to 2A), a linear mixed-effect model with treatment, period, and sequence as fixed effects and participant nested within sequence as a random effect was fitted to the natural log-transformed PK parameters (Cmax, AUC0–t, and AUC0–∞) for use in estimation of effects and construction of CIs. […]

[2] = Phase 1 relative bioavailability study part 1: plasma pharmacokinetics of fedratinib (2-period crossover); assay type: in vivo, human; details: for AUC(0-t) / AUC(0-inf) / Cmax / Tmax / half-life: human, plasma, po, 400 mg; for half-life: read-out: t½, mean (SD) (converted)
Experimental: Study part 1 was a 2-period, 2-sequence, open-label, crossover design (Fig. 1A). Treatment 1A (reference) consisted of fedratinib 400 mg (4 × 100-mg capsules) administered orally along with approximately 180 mL of a commercially available nutritional supplement (ie, Ensure Plus). Treatment 1B (test) consisted of fedratinib 400 mg dispersed in a nutritional supplement and administered orally. Participants were randomized to receive treatment in one of the following sequences: 1A–1B or 1B–1A. […] No food or beverages (except water and any nutritional supplement administered with the treatment) were allowed for at least 4 h after dosing.
as §1, §2, §3, §4
To compare the PK parameters and estimated relative bioavailability of fedratinib following different administration methods in each study part (treatment 1B to 1A, and treatment 2B and 2C to 2A), a linear mixed-effect model with treatment, period, and sequence as fixed effects and participant nested within sequence as a random effect was fitted to the natural log-transformed PK parameters (Cmax, AUC0–t, and AUC0–∞) for use in estimation of effects and construction of CIs.
In study parts 1 and 2, point estimates and 90% CI for the difference between test and reference treatments was exponentiated, and the ratio of geometric means (test/reference) and associated 90% CI was presented on the original scale. For comparison of treatment 2C to 2A in study part 2, the relative bioavailability assessment was based on only AUC. For Tmax, the difference between test and reference was assessed for significance using Wilcoxon signed-rank test. […]

[3] = Treatment 1B vs 1A (dispersed oral vs intact capsules), linear mixed-effect model

Cc1cnc(Nc2ccc(OCCN3CCCC3)cc2)nc1Nc1cccc(S(=O)(=O)NC(C)(C)C)c1 [fedratinib]
Cmax ([1]; po, 400 mg, Treatment 2A: single 400 mg oral, intact capsules with nutritional supplement, read-out: Cmax, geometric mean (statistical analysis)): 1390 ng/mL
Tmax ([1]; po, 400 mg, Treatment 2A: single 400 mg oral, intact capsules with nutritional supplement, read-out: Tmax, median (statistical analysis)): 2.67 h
Cmax ([1]; po, 400 mg, Treatment 2C: 400 mg oral divided dose (2 × 100-mg capsules BID) with nutritional supplement, after the first dose, read-out: Cmax, geometric mean (Geo. %CV)): 641 ng/mL
Tmax ([1]; po, 400 mg, Treatment 2C: 400 mg oral divided dose (2 × 100-mg capsules BID) with nutritional supplement, after the first dose, read-out: Tmax, median (range)): 1.9 h
half-life ([1]; po, 400 mg, Treatment 2C: 400 mg oral divided dose (2 × 100-mg capsules BID) with nutritional supplement, after the second dose, read-out: t½, mean (SD) (converted)): 96.7 h
AUC(0-t) ([1]; Treatment 2C: 400 mg oral divided dose (2 × 100-mg capsules BID) with nutritional supplement, from time 0 (first dose) through 240 h, read-out: AUC0–t, geometric mean (Geo. %CV)): 18900 ng·h/mL
AUC(0-inf) ([1]; Treatment 2C: 400 mg oral divided dose (2 × 100-mg capsules BID) with nutritional supplement, from time 0 (first dose), read-out: AUC0–∞, geometric mean (Geo. %CV)): 21300 ng·h/mL
AUC0–∞ geometric mean ratio (90% CI) [2, 3]: 1.009 (0.939–1.085)
Cmax geometric mean ratio (90% CI) [2, 3]: 1.059 (0.969–1.157)
AUC(0-t) ([2]; Treatment 1A: single 400 mg oral, 4 × 100-mg intact capsules with nutritional supplement, n = 27, read-out: AUC0–t, geometric mean (Geo. %CV)): 20000 ng·h/mL
AUC(0-inf) ([2]; Treatment 1A: single 400 mg oral, 4 × 100-mg intact capsules with nutritional supplement, n = 27, read-out: AUC0–∞, geometric mean (Geo. %CV)): 22100 ng·h/mL
Cmax ([2]; Treatment 1A: single 400 mg oral, 4 × 100-mg intact capsules with nutritional supplement, n = 27, read-out: Cmax, geometric mean (Geo. %CV)): 1320 ng/mL
Tmax ([2]; Treatment 1A: single 400 mg oral, 4 × 100-mg intact capsules with nutritional supplement, n = 27, read-out: Tmax, median (range)): 2.1 h
half-life ([2]; Treatment 1A: single 400 mg oral, 4 × 100-mg intact capsules with nutritional supplement, n = 27): 103 h
AUC(0-t) ([2]; Treatment 1A: single 400 mg oral, intact capsules with nutritional supplement, n = 27, read-out: AUC0–t, geometric mean (statistical analysis)): 20400 ng·h/mL
AUC(0-inf) ([2]; Treatment 1A: single 400 mg oral, intact capsules with nutritional supplement, n = 27, read-out: AUC0–∞, geometric mean (statistical analysis)): 22500 ng·h/mL
Cmax ([2]; Treatment 1A: single 400 mg oral, intact capsules with nutritional supplement, n = 27, read-out: Cmax, geometric mean (statistical analysis)): 1350 ng/mL
Tmax ([2]; Treatment 1A: single 400 mg oral, intact capsules with nutritional supplement, n = 27, read-out: Tmax, median (statistical analysis)): 2.57 h
AUC(0-t) ([2]; Treatment 1B: single 400 mg oral, capsule contents dispersed in nutritional supplement, n = 26, read-out: AUC0–t, geometric mean (Geo. %CV)): 20500 ng·h/mL
AUC(0-t) ([2]; Treatment 1B: single 400 mg oral, capsule contents dispersed in nutritional supplement, n = 26, read-out: AUC0–t, geometric mean (statistical analysis)): 20500 ng·h/mL
AUC(0-inf) ([2]; Treatment 1B: single 400 mg oral, capsule contents dispersed in nutritional supplement, n = 26, read-out: AUC0–∞, geometric mean (Geo. %CV)): 22700 ng·h/mL
AUC(0-inf) ([2]; Treatment 1B: single 400 mg oral, capsule contents dispersed in nutritional supplement, n = 26, read-out: AUC0–∞, geometric mean (statistical analysis)): 22700 ng·h/mL
Cmax ([2]; Treatment 1B: single 400 mg oral, capsule contents dispersed in nutritional supplement, n = 26, read-out: Cmax, geometric mean (Geo. %CV)): 1430 ng/mL
Cmax ([2]; Treatment 1B: single 400 mg oral, capsule contents dispersed in nutritional supplement, n = 26, read-out: Cmax, geometric mean (statistical analysis)): 1430 ng/mL
Tmax ([2]; Treatment 1B: single 400 mg oral, capsule contents dispersed in nutritional supplement, n = 26, read-out: Tmax, median (statistical analysis)): 2 h
half-life ([2]; Treatment 1B: single 400 mg oral, capsule contents dispersed in nutritional supplement, n = 26): 98.7 h

— publication PMC10950972, “Relative bioavailability of fedratinib through various alternative oral administration methods in healthy adults” (Cancer Chemotherapy and Pharmacology, 2023)
